This is an account of results in patent US7858619B2, “Substituted tetrahydroisochinolines as MMP inhibitors, related production method and use as medicine” (sanofi-aventis, priority 2005, dated 2010).

≈ marks a conversion by molar mass, not a printed value. Like-named read-outs stand apart in the source and are kept apart here.

Data set [1] can be described thus: Thermodynamic solubility in PBS buffer pH 7.4, CLND (chemoluminescent nitrogen detector). The data set is classed as physicochemical. To be noted: aqueous buffer, thermodynamic from solid, PBS buffer pH 7.4, room temperature. As to the method: The solution is then centrifuged at 14 000 rpm for 5 minutes. The solution is removed from the pellet and filtered through a syringe filter (0.45 μm pore size). The presence of a pellet is checked in order to ensure that a saturated solution was present. The filtered clear solution is analyzed by HPLC.
The dissolved amount of substance is quantified using a generic chromatographic method:
Either a calibration line derived from DMSO stock solutions (1-500 μM) of the appropriate substance is used to quantify the corresponding signal in the UV (254 nm) chromatogram of the solubility sample, or the quantification is undertaken via the peak area in the CLND trace. In the case of CLND quantification, caffeine is used as standard in a calibrating dilution.
The limit of quantitation is determined together with the calibration series. The limit of quantitation is normally 1-5 μM with UV detection, 5-10 μM with CLND quantification (depending on the number of nitrogen atoms in the molecule or the extinction coefficient of the molecule). If the intensity of the signal from the dissolved molecule is below the limit of quantitation, the result is reported as less than the limit of quantitation.
The clear solution after incubation for 16 hours is always measured as duplicates, once diluted 40-fold and once directly without dilution. The sample for which the signal is in the linear range of the calibration is used to determine the solubility.

A short description of a further data set: Protein binding (human). To be noted: plasma. The data set is classed as in vitro ADME.
Another data set concerns the target T1, Gelatinase B (MMP-9) (Homo sapiens, UniProt P14780).
T1 construct: All the MMP-9 present in the samples (proMMP-9; active MMP-9 complexed or not complexed with the respective test substance) was isolated; from tissue; host or cells: freshly isolated human serum
Kind of data set: Catalytic inhibition of gelatinase B (MMP-9) in human serum (serum-based assay). The class given is biochemical. The method, then: Freshly isolated human serum was shock-frozen in the desired volume in liquid N2 and then stored at −80° C. For the catalytic inhibition of MMP-9 in human serum, the appropriate parts by volume of human serum were thawed at room temperature. 100 parts by volume of undiluted, freshly thawed human serum were mixed with 1 part by volume of test substance, thoroughly mixed and incubated at 37° C. for 1 h. The test substances were dissolved in 100% dimethyl sulfoxide, and a 10 mM stock solution was prepared. For dose-effect plots, the test substances were tested in final concentrations of from […] to 0.001 μM for their catalytic inhibition of MMP-9 in human serum. The final concentration of DMSO in the reaction solution was 1% in each case.
Active MMP-9 from the reaction solutions described above was determined with the aid of a MMP-9 activity assay system (Amersham Pharmacia Biotech Europe GmbH).
After the incubation, one part by volume of the reaction mixture described above was diluted with 20 parts by volume of MMP-9 reaction buffer. The samples diluted in this way were transferred to a 96-well assay plate (Amersham Pharmacia Biotech Europe GmbH, Germany) coated with a specific MMP-9 antibody and incubated at 4° C. overnight. In addition, various concentrations of dissolved, recombinant human pro MMP-9 were likewise transferred onto the 96-well assay plate to construct the standard curve.
100 μl of the respective samples were employed per well. All the MMP-9 present in the samples (proMMP-9; active MMP-9 complexed or not complexed with the respective test substance) was isolated from the sample mixture by the specific MMP-9 antibody and bound to a solid matrix.
The immobilized MMP-9 samples were, after the incubation, washed 4× with 200 μl of washing buffer each time. Subsequently, proMMP-9 present was activated with 50 μl of APMA solution at 37° C. for 1.5 h.
The enzymic activity was measured by adding, after the incubation, 50 μl of detection reagent to each sample and mixing. The absorption of the assay plate charged in this way was measured immediately at 405 nm in an ELISA measuring instrument in order to fix time t=0. The assay plate was then incubated at 37° C. for 2 to 3 h and thereafter the absorption at 405 nm was measured.
Using the standard curve employed, the resulting measurements were converted as follows to the remaining, uninhibited active form of MMP-9 in ng/ml. • X=(Y−b)/m*20 • X=active MMP-9 in [ng/mL] • Y=measured absorption • b=intercept on y axis • m=gradient • 20=dilution factor
The inhibitory effect was calculated as percentage inhibition by the following formula: % inhibition=100−(X2*100/X1) • X1=active MMP-9 in [ng/ml] without test substance • X2=active MMP-9 in [ng/ml] with test substance
The IC50, the concentration of inhibitor which is necessary for 50% inhibition of the enzymic activity, was determined graphically by plotting the percentage inhibitions at various inhibitor concentrations.
The composition of the buffer solutions respectively employed was as follows:
Reaction buffer: • 50 mM Tris-HCl pH 7.6 • 1.5 mM NaCl • 0.5 mM CaCl2 • 1 μM ZnCl2 • 0.01% (v/v) BRIJ 35
Recombinant MMP-9 employed for standard: • 0; 0.5; 1.0; 2.0; 4.0; 8.0; 16.0 ng/ml
Washing buffer: • 0.01 M sodium phosphate buffer pH 7.0 • 0.05% Tween20
APMA solution: • 1 mM p-aminophenyl mercuric acetate • 50 mM Tris-HCl pH 7.6 • 1.5 mM NaCl • 0.5 mM CaCl2 • 1 μM ZnCl2 • 0.01% (v/v) BRIJ 35
Detection reagent: • Modified urokinase • S-2444 peptide substrate • 50 mM Tris-HCl pH 7.6 • 1.5 mM NaCl • 0.5 mM CaCl2 • 1 μM ZnCl2 • 0.01% (v/v) BRIJ 35

Setting [2] is: hydroxamic acid derivatives, read-out: MMP-9*.
Setting [3] is: carboxylic acid derivatives, read-out: MMP-9 activity.

T1 sequence (P14780 107-707 limits assumed): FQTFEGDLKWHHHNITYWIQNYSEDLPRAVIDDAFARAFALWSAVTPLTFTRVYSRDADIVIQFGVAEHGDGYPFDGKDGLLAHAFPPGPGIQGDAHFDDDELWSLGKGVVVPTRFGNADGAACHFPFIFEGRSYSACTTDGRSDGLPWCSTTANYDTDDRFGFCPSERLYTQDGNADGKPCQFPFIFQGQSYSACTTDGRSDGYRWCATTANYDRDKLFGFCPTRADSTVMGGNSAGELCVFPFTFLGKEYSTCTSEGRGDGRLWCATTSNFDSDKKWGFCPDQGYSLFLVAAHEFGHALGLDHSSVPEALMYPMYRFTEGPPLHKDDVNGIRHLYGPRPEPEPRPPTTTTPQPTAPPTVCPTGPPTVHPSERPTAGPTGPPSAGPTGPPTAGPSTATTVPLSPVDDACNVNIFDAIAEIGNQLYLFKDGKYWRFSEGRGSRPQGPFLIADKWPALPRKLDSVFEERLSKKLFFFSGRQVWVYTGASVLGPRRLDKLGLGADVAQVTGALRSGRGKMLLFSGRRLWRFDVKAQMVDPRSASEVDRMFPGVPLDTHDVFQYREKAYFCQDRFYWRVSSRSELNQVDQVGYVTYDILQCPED

For `O=C(NO)C1c2ccccc2CCN1S(=O)(=O)c1ccc(Oc2ccc(F)cc2)cc1` (stereo not shown) [Comparative compound], the solubility (usually how much of the substance goes into solution per volume) at 16 h in data set [1] is less than 1 µM. The fraction unbound (in general, free concentration divided by total concentration) in the data set “Protein binding (human)” is 0.002. In addition, the IC50 at Gelatinase B (MMP-9) (setting [2]) was found to be 2500 nM.
On to `O=C(O)C1c2ccccc2CCN1S(=O)(=O)c1ccc(Oc2ccc(F)cc2)cc1` (stereo not shown) [Comparative compound], for which, at Gelatinase B (MMP-9) (setting [3]), the IC50 was more than 100000 nM.
Take `O=C(O)C1c2ccc(OCCN3CCCCC3)cc2CCN1S(=O)(=O)c1ccc(Oc2ccc(F)cc2)cc1` (stereo not shown) [Exemplary compound 2, 2-[4-(4-Fluorophenoxy)benzenesulfonyl]-6-(2-piperidin-1-ylethoxy)-1,2,3,4-tetrahydroisoquinoline-1-carboxylic acid]: the IC50 on Gelatinase B (MMP-9) (setting [3]) is 8700 nM.
Consider `CN1CCN(CCCOc2ccc3c(c2)CCN(S(=O)(=O)c2ccc(Oc4ccc(F)cc4)cc2)C3C(=O)NO)CC1` (stereo not shown) [Exemplary compound 3, 2-[4-(4-Fluorophenoxy)benzenesulfonyl]-6-[3-(4-methylpiperazin-1-yl)propoxy]-1,2,3,4-tetrahydroisoquinoline-1-carboxylic acid hydroxamide], for which the concentration in solution in data set [1] (solubility at 16 h) came to 23 µM (≈ 13.8 µg/mL). The compound further had a free fraction (fraction unbound) in “Protein binding (human)” of 0.01. For the same compound, the IC50 at Gelatinase B (MMP-9) (setting [2]) came to 200 nM.
Turning to `CCN(CC)CCOc1ccc2c(c1)CCN(S(=O)(=O)c1ccc(Oc3ccc(F)cc3)cc1)C2C(=O)NO` (stereo not shown) [Exemplary compound 9, 6-(2-Diethylaminoethoxy)-2-[4-(4-fluorophenoxy)benzenesulfonyl]-1,2,3,4-tetrahydroisoquinoline-1-carboxylic acid hydroxyamide], the solubility at 16 h in data set [1] came out at 153 µM (≈ 85.3 µg/mL). In the data set “Protein binding (human)”, this compound showed a fraction unbound of 0.061. Moreover, the IC50 at Gelatinase B (MMP-9) (setting [2]) is 20 nM.
`COc1ccc(Oc2ccc(S(=O)(=O)N3CCc4cc(OCCN5CCCCC5)ccc4C3C(=O)NO)cc2)cc1` (stereo not shown) [Exemplary compound 13, 2-[4-(4-Methoxyphenoxy)benzenesulfonyl]-6-(2-piperidin-1-ylethoxy)-1,2,3,4-tetrahydroisoquinoline-1-carboxylic acid hydroxyamide]: in data set [1], the solubility at 16 h worked out at 16 µM (≈ 9.31 µg/mL). This compound showed a fraction unbound in the data set “Protein binding (human)” of 0.011. Further, the IC50 on Gelatinase B (MMP-9) (setting [2]) amounted to 600 nM.
On to `COc1ccc(Oc2ccc(S(=O)(=O)N3CCc4cc(OCCN5CCCCC5)ccc4C3C(=O)O)cc2)cc1` (stereo not shown) [Exemplary compound 14, 2-[4-(4-Methoxyphenoxy)benzenesulfonyl]-6-(2-piperidin-1-ylethoxy)-1,2,3,4-tetrahydroisoquinoline-1-carboxylic acid], for which, on Gelatinase B (MMP-9) (setting [3]), the IC50 came out at 7500 nM.
With `CCN(CC)CCOc1ccc2c(c1)CCN(S(=O)(=O)c1ccc(Oc3ccc(OC)cc3)cc1)C2C(=O)NO` (stereo not shown) [Exemplary compound 15, 6-(2-Diethylaminoethoxy)-2-[4-(4-methoxyphenoxy)benzenesulfonyl]-1,2,3,4-tetrahydroisoquinoline-1-carboxylic acid hydroxyamide], the solubility at 16 h in data set [1] is 107 µM (≈ 61 µg/mL). In “Protein binding (human)”, this compound gave a free fraction (fraction unbound) of 0.012. Also, the IC50 at Gelatinase B (MMP-9) (setting [2]) worked out at 200 nM.
With `CCN(CC)CCOc1ccc2c(c1)CCN(S(=O)(=O)c1ccc(Oc3ccc(OC)cc3)cc1)C2C(=O)O` (stereo not shown) [Exemplary compound 16, 6-(2-Diethylaminoethoxy)-2-[4-(4-methoxyphenoxy)benzenesulfonyl]-1,2,3,4-tetrahydroisoquinoline-1-carboxylic acid], the IC50 on Gelatinase B (MMP-9) (setting [3]) was 6600 nM.
